According to patent US11819511B2, “Composition of N-palmitoyl-ethanolamide and Rutin in co-micronized form” (EPITECH GROUP S.P.A, priority 2019, dated 2023):

How the values were obtained:
[1] = system: thoracic aorta rings exposed to peroxynitrite; test: Ex vivo vascular reactivity: contraction of thoracic aorta rings from norepinephrine, after complete ligation of the left carotid artery and 14 days of treatment; assay type: in vivo, C57Bl/6 strain mice; settings: aorta rings collected day 14, exposed to peroxynitrite 1 mM, per os once a day for 14 days
Method: (§1) (as described by Q.Xu “Mouse models of arteriosclerosis: from arterial injuries to vascular grafts” Am J Pathol. (2014); 165(1):1-10). […] Cuzzocrea et al “Superoxide: a key player in hypertension” FASEB J. […] In particular, the ex vivo measurement of vascular reactivity is carried out with the following procedures: Adult mice of the C57Bl/6 strain weighing 25-30 g are used (Envigo-Italy). The groups of animals on which the evaluations were carried out (10 animals per group) were the following: • Group 1—Animals treated per os with 10 mg/kg of co-micronized palmitoyl-ethanolamide: […] Rutin in a 1:1 ratio, suspended in 1% carboxymethylcellulose solution and with the addition of 0.5 mg/kg of pure hydroxytyrosol in the final solution. At the end of the treatments, the thoracic aortas of the animals are taken and adequately cleaned of the adherent peri-adventitious fat and 3-4 mm rings are cut out. The rings are placed in Krebs solution at pH 7.4 (Krebs solution composition: NaCl 118 mM; KCl 4.7 mM; KH2PO4 1.2 mM; CaCl2 2.5 mM; MgSO4 1.2 mM; NaHCO3 25 mM; glucose 11.7 mM). […] A voltage of 1 g is applied, and the Krebs solution is exchanged every 15 minutes. The aorta rings are exposed to a concentration of peroxynitrile 1 mM.

[2] = system: thoracic aorta rings exposed to peroxynitrite; test: Ex vivo vascular reactivity: endothelium-dependent release of thoracic aorta rings from acetylcholine, after complete ligation of the left carotid artery and 14 days of treatment; assay type: in vivo, C57Bl/6 strain mice; settings: aorta rings collected day 14, exposed to peroxynitrite 1 mM, per os once a day for 14 days
Method: as §1

[3] = Trolox equivalent; cited from earlier work

SMILES: CCCCCCCCCCCCCCCC(=O)NCCO [Group 2, palmitoyl-ethanolamide]
- Contraction (g) from Norepinephrine ([1]; Norepinephrine 100 nM): 0.20 g
- Contraction (g) from Norepinephrine ([1]; Norepinephrine 1,000 nM): 0.40 g
- Contraction (g) from Norepinephrine ([1]; Norepinephrine 10,000 nM): 0.70 g
- Vascular Tone-% of Pre-Contraction from Acetylcholine ([2]; Acetylcholine 0.1 μM): 99%
- Vascular Tone-% of Pre-Contraction from Acetylcholine ([2]; Acetylcholine 1.0 μM): 94%
- Vascular Tone-% of Pre-Contraction from Acetylcholine ([2]; Acetylcholine 10.0 μM): 85%

SMILES: C[C@@H]1O[C@@H](OC[C@H]2O[C@@H](Oc3c(-c4ccc(O)c(O)c4)oc4cc(O)cc(O)c4c3=O)[C@H](O)[C@@H](O)[C@@H]2O)[C@H](O)[C@H](O)[C@H]1O [Group 3, Rutin]
- Contraction (g) from Norepinephrine ([1]; Norepinephrine 100 nM): 0.20 g
- Contraction (g) from Norepinephrine ([1]; Norepinephrine 1,000 nM): 0.40 g
- Contraction (g) from Norepinephrine ([1]; Norepinephrine 10,000 nM): 0.70 g
- Vascular Tone-% of Pre-Contraction from Acetylcholine ([2]; Acetylcholine 0.1 μM): 100%
- Vascular Tone-% of Pre-Contraction from Acetylcholine ([2]; Acetylcholine 1.0 μM): 96%
- Vascular Tone-% of Pre-Contraction from Acetylcholine ([2]; Acetylcholine 10.0 μM): 81%

SMILES: OCCc1ccc(O)c(O)c1 [hydroxytyrosol, 1-(2-hydroxy)ethyl-3,4-dihydroxybenzene]
- ORAC (Oxygen Radical Absorbance Capacity) index [3]: 40,000 μmolTE/g
